Laboratory results published in US9814787B2, “Luciferin amides” (University of Massachusetts, priority 2013, dated 2017).

Key:
FAAH = target: T1, FAAH (Homo sapiens, UniProt O00519); assay: In vitro FAAH assay: luciferin amide treated with recombinant FAAH, then R218K luciferase, bioluminescence; format: biochemical
T1 construct: purchased Cayman Chemical
T1 sequence (O00519 1-579): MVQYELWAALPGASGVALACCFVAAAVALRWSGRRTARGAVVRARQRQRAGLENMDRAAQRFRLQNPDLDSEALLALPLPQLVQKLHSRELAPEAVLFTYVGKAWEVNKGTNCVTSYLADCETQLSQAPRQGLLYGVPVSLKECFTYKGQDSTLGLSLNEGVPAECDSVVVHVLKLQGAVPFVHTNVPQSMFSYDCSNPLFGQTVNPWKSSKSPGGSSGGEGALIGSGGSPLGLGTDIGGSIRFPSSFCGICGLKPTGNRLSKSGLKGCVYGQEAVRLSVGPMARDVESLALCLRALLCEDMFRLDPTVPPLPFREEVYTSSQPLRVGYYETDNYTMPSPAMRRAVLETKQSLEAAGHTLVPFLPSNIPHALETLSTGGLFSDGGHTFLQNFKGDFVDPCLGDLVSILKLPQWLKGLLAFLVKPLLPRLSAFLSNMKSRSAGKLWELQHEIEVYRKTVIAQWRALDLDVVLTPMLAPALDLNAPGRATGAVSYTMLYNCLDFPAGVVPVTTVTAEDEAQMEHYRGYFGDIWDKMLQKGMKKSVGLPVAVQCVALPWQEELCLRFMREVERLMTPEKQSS
Protocol: Recombinant FAAH, FAAH assay buffer, and FAAH inhibitors URB-597, PF-750, and PF-3845 were purchased from Cayman Chemical.
Bioluminescence assays were performed in either a Turner Veritas luminometer or a Xenogen IVIS-100 imaging system. For Veritas experiments, white 96-well plates were used (Costar 3912). For IVIS experiments, black 96-well plates were used (Costar 3915).
Luciferin amides (50 μM) were treated with FAAH and FAAH buffer (Cayman Chemical) in the presence or absence of 50 μM FAAH inhibitor URB-597 or 50 μM luciferase inhibitor 2-(4′-methoxyphenyl)benzothiazole. After 10 minutes at room temperature, R218K mutant firefly luciferase was added at a concentration of 3 μg/mL and bioluminescence was detected on a Turner Veritas luminometer.
Four luciferin amides (50 μM), i.e., Compounds 1, 9, 10, and 25, were treated with a buffer alone, a buffer containing FAAH, a buffer containing FAAH+50 μM URB-597 (i.e., a FAAH inhibitor), or a buffer containing FAAH+50 μM luciferase inhibitor 2-(4′-methoxyphenyl)benzothiazole. After 10 minutes at room temperature, R218K luciferase was added at a concentration of 3 μg/mL and bioluminescence was detected on a Turner Veritas.
Three luciferin amides (50 μM), i.e., Compounds 2, 9, and 25, were treated with a buffer alone, a buffer containing FAAH, a buffer containing FAAH 1:10 (i.e., a ten-fold dilution of FAAH), a buffer containing pig liver esterase (PLE), or a buffer containing PLE 1:10 (i.e., a ten-fold dilution of PLE). After one hour at room temperature, R218K luciferase was added at a concentration of 3 μg/mL and bioluminescence was detected on a Turner Veritas.

[1] = test system: FVB mice expressing luciferase in brain tissue; assay: In vivo bioluminescence imaging in brains of FVB mice injected with AAV9-luc+ in the striatum; settings: for light emission in brains of live mice (qualitative): mouse, in vivo
Protocol: FVB mice were injected with AAV9-luc+ in the brain striatum. Bioluminescence assays were performed approximately nine months after AAV injection. Each luciferin amide was diluted into PBS to the indicated concentration from a 50 mM DMSO stock solution and filtered (0.22 μm) prior to intraperitoneally injection (0.1 mL per mouse). Mice were anesthetized with isoflurane (2% in 1 L/min oxygen) and images acquired on a Xenogen IVIS 100 imaging system and analyzed with Living Image software.
Certain luciferin amides described herein were tested to determine whether they would image well in live mice. For these studies, FVB mice were injected with adeno-associated virus 9 (AAV9)-luciferase constructs into the brain striatum.
Bioluminescence imaging (BLI) in the brain is more challenging than imaging in the rest of the organism, in part because a luciferase substrate (i.e., a luciferin) must cross the blood-brain barrier. Therefore, the ability of a synthetic luciferin (i.e., Compound 9's corresponding luciferin (CycLuc1)) to allow bioluminescence imaging in these mice, as compared to the native firefly luciferase substrate (i.e., D-luciferin) was first tested. Specifically, each substrate was injected intraperitoneally (IP) in PBS at a volume of 0.1 mL, D-luciferin being at a concentration of 100 mM and CycLuc1 being at a concentration of 5 mM. […] CycLuc1 was then injected at a 320-fold lower dose (0.06 mL of 0.5 mM) than D-luciferin.
Specifically, Compound 9 (i.e., CycLuc1 amide) was injected at 0.5 mM in 0.5% DMSO/PBS (0.06 mL).
In this figure, mice in the top row were treated with luciferin amides in the amounts indicated in the figure, and the mice in the bottom row were the same mice that were imaged one day later using a standard dose of D-luciferin.

[2] = test system: live CHO cells expressing R218K luciferase; assay: Intact cell FAAH assay, light emission from live CHO cells expressing R218K luciferase; format: cell-based, Chinese hamster; settings: 50 μM FAAH inhibitor
Protocol: Chinese hamster ovary-K1 (CHO-K1) cells were grown in a CO2 incubator at 37° C. with 5% CO2 and were cultured in F-12K Nutrient Mixture (GIBCO) supplemented with 10% fetal bovine serum and 100 U/mL penicillin/streptomycin.
Wild-type and R218K mutant luciferases were cloned into the BamHI-NotI site of pCDNA 3.1 and transiently transfected into CHO-K1 cells with Lipofectamine 2000 in 96-well tissue culture-treated plates for intact cell assays, or 6-well plates for lysed cell assays. For intact cells, 0.075 μg plasmid/well was transfected; for lysed cells, 2.25 μg plasmid/well was transfected.
[…] The cells were incubated for one hour in the CO2 incubator at 37° C. Cells were then washed with Hank's balanced salt solution (HBSS) and overlaid with 60 μL a luciferin amide substrate in HBSS. Imaging assays were performed 3 minutes after substrate addition, with final substrate concentrations ranging from 0.122 to 250 μM.
Seven luciferin amides, i.e., Compounds 1-4, 9, 10, and 25, were tested in live CHO cells expressing R218K luciferase at various concentrations (i.e., 0.12 μM, 0.25 μM, 0.5 μM, 1 μM, 2 μM, 4 μM, 8 μM, 16 μM, 31 μM, 62 μM, 125 μM, and 250 μM).
Compound 25 and Compound 10, as well as their corresponding luciferins (i.e., D-Luciferin and CycLuc2, respectively), were tested in live CHO cells expressing wild-type (WT) luciferase or R218K (RK) luciferase at various concentrations (i.e., 0.125 μM, 0.25 μM, 0.5 μM, 1 μM, 2 μM, 4 μM, 8 μM, 16 μM, 31 μM, 62 μM, 125 μM, and 250 μM).

With CNc1ccc2nc(C3=N[C@@H](C(N)=O)CS3)sc2c1 [Compound 1, (S)-4,5-dihydro-2-(6-(methylamino)benzo[d]-thiazol-2-yl)thiazole-4-carboxamide] the “increase in bioluminescence signal on addition of FAAH versus buffer” value (FAAH; 50 μM luciferin amide, 10 minutes at room temperature, R218K luciferase 3 μg/mL) was 167 fold and the “light emission in brains of live mice (qualitative)” value (“light emission in brains” below) [1] was “relatively strong light emission”.
For CC(C)CNc1ccc2nc(C3=N[C@@H](C(N)=O)CS3)sc2c1 [Compound 3, (S)-4,5-dihydro-2-(6-(isobutylamino)benzo[d]-thiazol-2-yl)thiazole-4-carboxamide], the “light emission in brains” value [1] was “relatively strong light emission”.
With NC(=O)[C@H]1CSC(c2nc3ccc(NCCCO)cc3s2)=N1 [Compound 4, (S)-2-(6-(3-hydroxypropylamino)benzo[d]-thiazol-2-yl)-4,5-dihydrothiazole-4-carboxamide] the “light emission in brains” value [1] was “relatively weak light emission”.
For CCNc1ccc2nc(C3=N[C@@H](C(N)=O)CS3)sc2c1 [Compound 6, (S)-2-(6-(ethylamino)benzo[d]thiazol-2-yl)-4,5-dihydrothiazole-4-carboxamide], the “light emission in brains” value [1] was “relatively strong light emission”.
CCNc1ccc2nc(C3=N[C@@H](C(=O)NC)CS3)sc2c1 [Compound 7, (S)-2-(6-(ethylamino)benzo[d]thiazol-2-yl)-4,5-dihydro-N-methylthiazole-4-carboxamide] was tested, and the “light emission in brains” value [1] was “relatively strong light emission”.
NC(=O)[C@H]1CSC(c2nc3cc4c(cc3s2)NCCC4)=N1 [Compound 14, (S)-2-(5,6,7,8-tetrahydrothiazolo[4,5-g]quinolin-2-yl)-4,5-dihydrothiazole-4-carboxamide] was tested, and the “Photon flux after treatment with luciferin analogs” value ([1]; 100 μM) was 1.43E+07 p/s and the “improved signal over 100 mM D-luciferin” value ([1]; 0.1 mM) was “more than 10 fold”.
In the case of CN1CCc2cc3nc(C4=N[C@@H](C(=O)O)CS4)sc3cc21 [CycLuc2, reference compound], the “effect of FAAH inhibitors URB-597, PF-750 and PF-3845 on light output” value [2] is reported as “no significant effect”.
For O=C(O)[C@H]1CSC(c2nc3ccc(O)cc3s2)=N1 [D-luciferin, reference compound], the “Photon flux after treatment with luciferin analogs” value ([1]; 100 mM) was 1.21E+06 p/s.
For NC(=O)c1cccc(-c2cccc(OC(=O)NC3CCCCC3)c2)c1 [URB-597, reference compound], the “inhibition of the FAAH-dependent bioluminescence signals of Compounds 1, 9, 10, 25 by FAAH inhibitor” value (FAAH; 50 μM URB-597, 50 μM luciferin amide) was “more than 100 fold”.
In the case of “Me2N-luciferin methyl ester [reference compound]”, the “light emission in brains” value [1] is reported as “relatively weak light emission”.
